Assay results: patent US20160175351A1, “CANCER TREATMENT” (DUKE UNIVERSITY, priority 2013, published 2016)
Where a SMILES comes first, the peptide text is derived from it. The star is where a group is joined. Cbz = O=C(OCc1ccccc1)*; CHN2 = [N-]=[N+]=C*; tBu = CC(C)(C)*

Legend:
[1] = test system: Ctr1 ectodomain cleavage in Cathepsin L-/- mouse embryonic fibroblasts; test: Ctr1 ectodomain cleavage, anti-Ctr1 immunoblot of Cathepsin L-/- MEFs (FIG. 4); format: cell-based
Source text: (§1) FIG. 4 is an immunoblot of protein extracts from wild-type MEFs (lanes 1-4) and Cathepsin L^−/− MEFs (lanes 5-8) with an anti-Ctr1 antibody and an anti-tubulin antibody. Lanes 1 and 2 are duplicate samples from untreated wild type MEFs. Lanes 3 and 4 are duplicate samples from wild-type MEFs treated with the Cathepsin L inhibitor E64d. Lanes 5 and 6 are duplicate samples from untreated Cathepsin L^−/− MEFs. Lanes 7 and 8 are duplicate samples from Cathepsin L^−/− MEFs treated with the Cathepsin L inhibitor E64d.
(§2) Mouse embryonic fibroblasts from wild type and CatL^−/− littermates were cultured in medium supplemented with 10% fetal bovine serum and treated with DMSO or […] of the cell permeable cysteine protease inhibitor E64d and harvested 16 hours later. Total proteins were isolated from the cells by homogenizing cells in ice cold PBS supplemented with 1% Triton-X, 0.1% SDS, and 1 mM EDTA. Cell debris was removed by centrifugation and the total amounts of soluble proteins were quantified in each sample. Equal amounts of proteins were separated on Tris/glycine gradient gel, transferred to nitrocellulose membrane and blocked with 5% non-fat milk in Tris buffered saline supplemented with 0.05% Tween (TBST) for 1 h. Membranes were incubated with anti-Ctr1 antibody (1:1000) followed by anti-rabbit-HRP coupled antibody (1:5000) and bands detected by enhanced chemiluminescent substrate. […]

[2] = test system: Ctr1 ectodomain cleavage in wild type mouse embryonic fibroblasts; test: Ctr1 ectodomain cleavage, anti-Ctr1 immunoblot of wild type MEFs (FIG. 4); format: cell-based; conditions: E64d 10 μM, harvested 16 hours later
Source text: as §1, §2

[3] = biological target: cathepsin B (Homo sapiens, UniProt P07858); conditions: known from literature (McGowan 1989; Barrett 1982); cited from earlier work
[4] = biological target: T1, papain (Carica papaya, UniProt P00784); conditions: known from literature (McGowan 1989; Barrett 1982); cited from earlier work
T1 sequence (P00784 134-345): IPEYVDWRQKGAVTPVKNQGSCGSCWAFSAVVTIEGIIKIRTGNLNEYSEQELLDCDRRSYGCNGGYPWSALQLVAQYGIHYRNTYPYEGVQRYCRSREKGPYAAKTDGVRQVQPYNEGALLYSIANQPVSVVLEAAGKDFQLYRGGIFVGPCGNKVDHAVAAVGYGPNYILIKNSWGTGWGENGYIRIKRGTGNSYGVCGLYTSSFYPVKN

[5] = biological target: cathepsin L (Homo sapiens, UniProt P07711); conditions: known from literature (McGowan 1989; Barrett 1982); cited from earlier work
Sequence of cathepsin L (P07711 114-333): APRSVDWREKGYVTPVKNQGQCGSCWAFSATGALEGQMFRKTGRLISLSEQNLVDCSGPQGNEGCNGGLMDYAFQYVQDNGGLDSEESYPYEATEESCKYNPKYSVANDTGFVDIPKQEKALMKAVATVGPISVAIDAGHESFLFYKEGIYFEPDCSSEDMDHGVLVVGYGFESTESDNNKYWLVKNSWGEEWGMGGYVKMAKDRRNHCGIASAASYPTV

[6] = test system: calpain; conditions: known from literature (McGowan 1989; Barrett 1982); cited from earlier work
[7] = biological target: T2, cathepsin H (Homo sapiens, UniProt P09668); conditions: known from literature (McGowan 1989; Barrett 1982); cited from earlier work
T2 sequence (P09668 98-335): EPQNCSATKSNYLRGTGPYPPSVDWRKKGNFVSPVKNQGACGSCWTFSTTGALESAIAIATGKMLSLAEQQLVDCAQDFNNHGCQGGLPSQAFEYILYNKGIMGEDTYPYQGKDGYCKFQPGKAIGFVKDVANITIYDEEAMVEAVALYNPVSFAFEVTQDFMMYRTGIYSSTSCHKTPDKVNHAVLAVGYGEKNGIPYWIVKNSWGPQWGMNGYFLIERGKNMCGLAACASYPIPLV

[8] = test system: Ctr1-/- MEFs expressing wild type Ctr1; test: Cisplatin uptake/accumulation by ICP-MS in MEFs expressing wild type Ctr1 (FIG. 6); format: cell-based, mouse; conditions: inhibitor 10 μM over night, then cisplatin 200 μM for 2 h
Source text: (§3) FIG. 6 is a graph showing platinum accumulation in Ctr1 knockout MEFs (Ctr1^−/−), wild-type MEFs (Ctr1), or MEFs expressing Ctr1 with a Pro25Ala mutation (Ctr1^P25A). Each of the above were either untreated (1, 2 and 3), or treated with the Cathepsin L inhibitor Z-FY(tBu)-DMK (4, 5 and 6).
(§4) Mouse embryonic fibroblasts from Ctr1^−/− embryos were stably transfected with the human Ctr1 and the human Ctr1 containing the proline to alanine mutation at position 25 (Ctr1^P25A). […] Cells were rinsed in three times with ice cold PBS before the cells were scraped and divided into two tubes; one for measuring metal concentration and one for protein quantification. […] Platinum concentrations in the digested samples were measured by inductively coupled plasma mass spectrometry ([…]) and normalized to the total amount of protein in the sample.
(§5) Mouse Ctr1^−/− MEFs were transfected with vector alone (Ctr1^−/−), the expression vector expressing wild type Ctr1 (Ctr1) or the Ctr1^P25A mutant protein (Ctr1^P25A). Cells were incubated with cisplatin (200 μM for 2 h), or cisplatin plus the Cathepsin L inhibitor Z-FY(t-Bu)-DMK (10 μM) as indicated, harvested and cisplatin accumulation measured by ICP-MS and plotted on the Y-axis.

[9] = test system: human Ctr1 containing the proline to alanine mutation at position 25 (Ctr1^P25A); test: Ctr1 ectodomain cleavage, anti-Ctr1 immunoblot of Ctr1-/- MEFs stably transfected with human Ctr1 P25A (FIG. 5); format: cell-based; conditions: MEFs expressing Ctr1^P25A, inhibitor 10 μM, 16 hours, immunoblot (lane 4)
Procedure: (§6) Each of the above were either untreated (lanes 1 and 2), or treated with the Cathepsin L inhibitor Z-FY(tBu)-DMK (lanes 3 and 4). F=full-length, T=truncated.
(§7) Mouse embryonic fibroblasts from Ctr1^−/− embryos were stably transfected with the human Ctr1 and the human Ctr1 containing the proline to alanine mutation at position 25 (Ctr1^P25A). Cells were cultured in medium supplemented with 20% fetal bovine serum and treated with DMSO or 10 μM cysteine protease Cathepsin L, Z-FY(t-Bu)-DMK and harvested 16 hours later. Total proteins were isolated from the cells by homogenizing cells in ice cold PBS supplemented with 1% Triton-X, 0.1% SDS, and 1 mM EDTA. Cell debris was removed by centrifugation and the total amounts of soluble proteins were quantified in each sample. Equal amounts of proteins were separated on tris/glycine gradient gel, transferred to nitrocellulose membrane and blocked with 5% non-fat milk in Tris buffered saline supplemented with 0.05% Tween (TBST) for 1 h. Membranes were incubated with anti-Ctr1 antibody (1:1000) followed by anti-rabbit-HRP coupled antibody (1:5000) and bands detected by enhanced chemiluminescent substrate. Anti-Actin antibody was used as loading control.
(§8) Inhibition of the cysteine protease Cathepsin L, Z-FY(t-Bu)-DMK (10 μM) (lanes 3 and 4) results in an increased levels of the copper and cisplatin binding full length form of Ctr1. […]

[10] = test system: Ctr1-/- MEFs expressing Ctr1^P25A; test: Cisplatin uptake/accumulation by ICP-MS in MEFs expressing Ctr1 P25A (FIG. 6); format: cell-based, mouse; conditions: inhibitor 10 μM over night, then cisplatin 200 μM for 2 h
Source text: as §3, §4, §5

[11] = test system: human Ctr1; test: Ctr1 ectodomain cleavage, anti-Ctr1 immunoblot of Ctr1-/- MEFs stably transfected with human Ctr1 (FIG. 5); format: cell-based; conditions: MEFs expressing human Ctr1, inhibitor 10 μM, 16 hours, immunoblot (lane 3)
Procedure: as §6, §7, §8

CCOC(=O)[C@H]1O[C@@H]1C(=O)N[C@@H](CC(C)C)C(=O)NCCC(C)C (relative stereo) [E64d, (2S,3S)-trans-Epoxysuccinyl-L-leucylamido-3-methylbutane ethyl ester]
levels of cleaved Ctr1 ([1]; Cathepsin L knock out MEFs, E64d 10 μM, 16 hours): not | full-length Ctr1 ([1]; Cathepsin L-/- MEFs treated with E64d vs not treated): increase | levels of cleaved Ctr1 [2]: dramatic reduction

CC(C)C[C@H](NC(=O)[C@H]1O[C@@H]1C(=O)O)C(=O)NCCCCN=C(N)N (relative stereo) [E-64, trans-Epoxysuccinyl-L-leucylamido(4-guanidino)butane]
inhibition of cathepsin B [3]: inhibit | inhibition of papain [4]: inhibit | inhibition of cathepsin L [5]: inhibit | inhibition of calpain [6]: inhibit | inhibition of cathepsin H [7]: inhibit

CC(C)(C)Oc1ccc(CC(NC(=O)C(Cc2ccccc2)NC(=O)OCc2ccccc2)C(=O)C=[N+]=[N-])cc1 (stereo not drawn) [Z-FY(t-Bu)-DMK, benzyl (1-((1-(4-(tert-butoxy)phenyl)-4-diazo-3-oxobutan-2-yl)amino)-1-oxo-3-phenylpropan-2-yl)carbamate] (Cbz-Phe-Tyr(tBu)-CHN2; configuration not given here)
cisplatin accumulation (platinum by ICP-MS, normalized to protein) [8]: enhanced | levels of the copper and cisplatin binding full length form of Ctr1 [9]: increased | cisplatin accumulation (platinum by ICP-MS, normalized to protein) [10]: enhanced | levels of the copper and cisplatin binding full length form of Ctr1 [11]: increased
